Source: the supplement of paper PMC4862054

Legend:
Conditions in all cases: 72 h
MFM-223 [1] = system: MFM-223
Outline: (§1)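 Breast cancer cell lines in 20 µl suspension were seeded onto 384-well plates pre-loaded with compound dissolved in 5 µl medium, then incubated 72 h. For viability, 2.5 µl CellTiter-Blue was added for 2 h at 37 °C and fluorescence read at 560/590 nm. Each plate was normalised to vehicle and a positive kill control and checked by Z'-factor. EC50 comes from the fitted percent-inhibition dose-response curve, censored at the highest concentration; rows with zero drug sensitivity score were dropped.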

HCC1937 [2] = system: HCC1937
Outline: as §1

Hs578T [3] = system: Hs578T
Outline: as §1

MDA-MB-436 [4] = system: MDA-MB-436
Outline: as §1

MDA-MB-468 [5] = system: MDA-MB-468
Outline: as §1

SK-BR-3 [6] = system: SK-BR-3
Outline: as §1

BT-474 [7] = system: BT-474
Outline: as §1

CAL-120 [8] = system: CAL-120
Outline: as §1

BT-549 [9] = system: BT-549
Outline: as §1

MDA-MB-231 [10] = system: MDA-MB-231
Outline: as §1

HCC1143 [11] = system: HCC1143
Outline: as §1

MFM-223 [12] = system: MFM-223; remark: listed apart in the source
Procedure: (§2)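 Drug sensitivity and resistance testing (DSRT) of breast cancer cell lines in 384-well plates, 5 concentrations in 10-fold dilutions over a compound-specific 10,000-fold range. After 72 h, cytotoxicity was read by CellTox Green fluorescence and viability by CellTiter-Glo luminescence (multiplexed), normalised to DMSO and benzethonium chloride controls. EC50 is the inflection point of the fitted dose-response curve (bottom asymptote free, so it can be relative for partial curves) and is censored at the highest tested concentration. Rows with DSS 0 (no meaningful response) were excluded.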

HCC1937 [13] = system: HCC1937; remark: listed apart in the source
Procedure: as §2

Hs578T [14] = system: Hs578T; remark: listed apart in the source
Procedure: as §2

HDQ-P1 [15] = system: HDQ-P1
Procedure: as §2

CAL-51 [16] = system: CAL-51
Procedure: as §2

BT-474 [17] = system: BT-474; remark: listed apart in the source
Procedure: as §2

BT-549 [18] = system: BT-549; remark: listed apart in the source
Procedure: as §2

MDA-MB-231 [19] = system: MDA-MB-231; remark: listed apart in the source
Procedure: as §2

CAL-85-1 [20] = system: CAL-85-1
Procedure: as §2

MCF-10A [21] = system: MCF-10A
Procedure: as §2

HCC1143 [22] = system: HCC1143; remark: listed apart in the source
Procedure: as §2

MFM-223 [23] = system: MFM-223; remark: listed apart in the source
Outline: (§3)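 In this assay, breast cancer cell lines spent 72 h with compound at 5 concentrations in 10-fold steps over a compound-specific 10,000-fold range. The first readout was cell death by CellTox Green fluorescence, and the second was viability by CellTiter-Glo luminescence, each normalised per plate to 0.1 % DMSO and a positive kill control. EC50 came from the dose-response curves, censored at the top concentration.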

CAL-148 [24] = system: CAL-148
Outline: as §3

HCC1937 [25] = system: HCC1937; remark: listed apart in the source
Outline: as §3

Hs578T [26] = system: Hs578T; remark: listed apart in the source
Outline: as §3

HCC1599 [27] = system: HCC1599
Outline: as §3

MDA-MB-436 [28] = system: MDA-MB-436; remark: listed apart in the source
Outline: as §3

CAL-51 [29] = system: CAL-51; remark: listed apart in the source
Outline: as §3

SK-BR-3 [30] = system: SK-BR-3; remark: listed apart in the source
Outline: as §3

MDA-MB-453 [31] = system: MDA-MB-453
Outline: as §3

DU-4475 [32] = system: DU-4475
Outline: as §3

CAL-120 [33] = system: CAL-120; remark: listed apart in the source
Outline: as §3

BT-549 [34] = system: BT-549; remark: listed apart in the source
Outline: as §3

MDA-MB-231 [35] = system: MDA-MB-231; remark: listed apart in the source
Outline: as §3

CAL-85-1 [36] = system: CAL-85-1; remark: listed apart in the source
Outline: as §3

MCF-10A [37] = system: MCF-10A; remark: listed apart in the source
Outline: as §3

HCC1143 [38] = system: HCC1143; remark: listed apart in the source
Outline: as §3

CAL-148 [39] = system: CAL-148; remark: listed apart in the source
Outline: as §1

HDQ-P1 [40] = system: HDQ-P1; remark: listed apart in the source
Outline: as §1

CAL-51 [41] = system: CAL-51; remark: listed apart in the source
Outline: as §1

MDA-MB-453 [42] = system: MDA-MB-453; remark: listed apart in the source
Outline: as §1

DU-4475 [43] = system: DU-4475; remark: listed apart in the source
Outline: as §1

CAL-85-1 [44] = system: CAL-85-1; remark: listed apart in the source
Outline: as §1

MDA-MB-436 [45] = system: MDA-MB-436; remark: listed apart in the source
Procedure: as §2

MDA-MB-468 [46] = system: MDA-MB-468; remark: listed apart in the source
Procedure: as §2

HCC1599 [47] = system: HCC1599; remark: listed apart in the source
Outline: as §1

CAL-148 [48] = system: CAL-148; remark: listed apart in the source
Procedure: as §2

SMILES: CC(=O)O[C@@]12CO[C@@H]1C[C@H](O)[C@@]1(C)C(=O)[C@H](O)C3=C(C)[C@@H](OC(=O)[C@H](O)[C@@H](NC(=O)OC(C)(C)C)c4ccccc4)C[C@@](O)([C@@H](OC(=O)c4ccccc4)[C@H]21)C3(C)C [Docetaxel]
- EC50, CellTiter-Blue viability (MFM-223 [1]): 2.57 nM
- EC50, CellTiter-Blue viability (HCC1937 [2]): 1.02 nM
- EC50, CellTiter-Blue viability (Hs578T [3]): 1.36 nM
- EC50, CellTiter-Blue viability (MDA-MB-436 [4]): 2.53 nM
- EC50, CellTiter-Blue viability (MDA-MB-468 [5]): 0.808 nM
- EC50, CellTiter-Blue viability (SK-BR-3 [6]): 1.9 nM
- EC50, CellTiter-Blue viability (BT-474 [7]): 6.71 nM
- EC50, CellTiter-Blue viability (CAL-120 [8]): 2.27 nM
- EC50, CellTiter-Blue viability (BT-549 [9]): 1.03 nM
- EC50, CellTiter-Blue viability (MDA-MB-231 [10]): 2.39 nM
- EC50, CellTiter-Blue viability (HCC1143 [11]): 1.71 nM
- EC50, CellTox Green (MFM-223 [12]): 12.2 nM
- EC50, CellTox Green (HCC1937 [13]): 946 nM
- EC50, CellTox Green (Hs578T [14]): 4.24 nM
- EC50, CellTox Green (HDQ-P1 [15]): 123 nM
- EC50, CellTox Green (CAL-51 [16]): 1.63 nM
- EC50, CellTox Green (BT-474 [17]): 5.12 nM
- EC50, CellTox Green (BT-549 [18]): 57.8 nM
- EC50, CellTox Green (MDA-MB-231 [19]): 1.94 nM
- EC50, CellTox Green (CAL-85-1 [20]): 1.87 nM
- EC50, CellTox Green (MCF-10A [21]): 3.14 nM
- EC50, CellTox Green (HCC1143 [22]): 108 nM
- EC50, CellTiter-Glo (MFM-223 [23]): 3.29 nM
- EC50, CellTiter-Glo (CAL-148 [24]): 1.52 nM
- EC50, CellTiter-Glo (HCC1937 [25]): 0.69 nM
- EC50, CellTiter-Glo (Hs578T [26]): 2.47 nM
- EC50, CellTiter-Glo (HCC1599 [27]): 12.2 nM
- EC50, CellTiter-Glo (MDA-MB-436 [28]): 2.14 nM
- EC50, CellTiter-Glo (CAL-51 [29]): 0.00586 µM
- EC50, CellTiter-Glo (SK-BR-3 [30]): 1.37 nM
- EC50, CellTiter-Glo (MDA-MB-453 [31]): 7.15 nM
- EC50, CellTiter-Glo (DU-4475 [32]): 8.31 nM
- EC50, CellTiter-Glo (CAL-120 [33]): 3.3 nM
- EC50, CellTiter-Glo (BT-549 [34]): 1.03 nM
- EC50, CellTiter-Glo (MDA-MB-231 [35]): 5.5 nM
- EC50, CellTiter-Glo (CAL-85-1 [36]): 1.46 nM
- EC50, CellTiter-Glo (MCF-10A [37]): 1.04 nM
- EC50, CellTiter-Glo (HCC1143 [38]): 1.17 nM
- EC50, CellTiter-Blue viability (CAL-148 [39]): 1.85 nM
- EC50, CellTiter-Blue viability (HDQ-P1 [40]): 1.39 nM
- EC50, CellTiter-Blue viability (CAL-51 [41]): 4.62 nM
- EC50, CellTiter-Blue viability (MDA-MB-453 [42]): 2.02 nM
- EC50, CellTiter-Blue viability (DU-4475 [43]): 2.52 nM
- EC50, CellTiter-Blue viability (CAL-85-1 [44]): 2.27 nM

SMILES: Nc1ncn([C@@H]2O[C@H](CO)[C@@H](O)[C@H]2O)c(=O)n1 [Azacitidine]
- EC50, CellTiter-Blue viability (HCC1937 [2]): > 10000 nM
- EC50, CellTiter-Blue viability (Hs578T [3]): 6120 nM
- EC50, CellTiter-Blue viability (MDA-MB-436 [4]): 1060 nM
- EC50, CellTiter-Blue viability (MDA-MB-468 [5]): 650 nM
- EC50, CellTiter-Blue viability (CAL-120 [8]): > 10000 nM
- EC50, CellTiter-Blue viability (BT-549 [9]): 2570 nM
- EC50, CellTox Green (MDA-MB-436 [45]): > 10 µM
- EC50, CellTox Green (MDA-MB-468 [46]): 595 nM
- EC50, CellTiter-Glo (HCC1599 [27]): 1290 nM
- EC50, CellTiter-Glo (MDA-MB-436 [28]): 1120 nM
- EC50, CellTiter-Glo (BT-549 [34]): 1280 nM

SMILES: Cc1sc2c(c1C)C(c1ccc(Cl)cc1)=N[C@@H](CC(=O)OC(C)(C)C)c1nnc(C)n1-2 [(+)JQ1]
- EC50, CellTiter-Blue viability (MFM-223 [1]): 243 nM
- EC50, CellTiter-Blue viability (HCC1937 [2]): 468 nM
- EC50, CellTiter-Blue viability (Hs578T [3]): 122 nM
- EC50, CellTiter-Blue viability (HCC1599 [47]): 406 nM
- EC50, CellTiter-Blue viability (MDA-MB-468 [5]): 871 nM
- EC50, CellTiter-Blue viability (SK-BR-3 [6]): 337 nM
- EC50, CellTiter-Blue viability (CAL-120 [8]): 114 nM
- EC50, CellTiter-Blue viability (BT-549 [9]): 320 nM
- EC50, CellTiter-Blue viability (MDA-MB-231 [10]): 265 nM
- EC50, CellTiter-Blue viability (HCC1143 [11]): 354 nM
- EC50, CellTox Green (CAL-148 [48]): 687 nM
- EC50, CellTox Green (HCC1937 [13]): 10 nM
- EC50, CellTox Green (CAL-51 [16]): 2330 nM
- EC50, CellTox Green (MDA-MB-468 [46]): 1830 nM
- EC50, CellTox Green (CAL-85-1 [20]): 2020 nM
- EC50, CellTiter-Glo (MFM-223 [23]): 481 nM
- EC50, CellTiter-Glo (CAL-148 [24]): 920 nM
- EC50, CellTiter-Glo (HCC1937 [25]): 720 nM
- EC50, CellTiter-Glo (Hs578T [26]): 126 nM
- EC50, CellTiter-Glo (MDA-MB-436 [28]): 749 nM
- EC50, CellTiter-Glo (CAL-51 [29]): 7.44 µM
- EC50, CellTiter-Glo (SK-BR-3 [30]): 494 nM
- EC50, CellTiter-Glo (MDA-MB-453 [31]): 447 nM
- EC50, CellTiter-Glo (DU-4475 [32]): 956 nM
- EC50, CellTiter-Glo (CAL-120 [33]): 231 nM
- EC50, CellTiter-Glo (BT-549 [34]): 167 nM
- EC50, CellTiter-Glo (MDA-MB-231 [35]): 653 nM
- EC50, CellTiter-Glo (CAL-85-1 [36]): 316 nM
- EC50, CellTiter-Glo (MCF-10A [37]): 254 nM
- EC50, CellTiter-Glo (HCC1143 [38]): 753 nM
- EC50, CellTiter-Blue viability (CAL-148 [39]): 676 nM
- EC50, CellTiter-Blue viability (CAL-51 [41]): 1040 nM
- EC50, CellTiter-Blue viability (MDA-MB-453 [42]): 172 nM
- EC50, CellTiter-Blue viability (DU-4475 [43]): 339 nM
- EC50, CellTiter-Blue viability (CAL-85-1 [44]): 254 nM
